Measurements as given in US12514863B2, “Pharmaceutical combination and use thereof” (ASCENTAGE PHARMA (SUZHOU) CO., LTD., priority 2019, dated 2026).

Experiments:
[1] = system: CD20-resistant DLBCL PDX LD2-6026-200614; assay: s.c. CD20-resistant DLBCL PDX LD2-6026-200614; parameters: species or system mice; settings: mouse, in vivo
Method: A subcutaneous xenograft tumor model of human tumor immunodeficient mice was established by cell inoculation: tumor cells in logarithmic growth phase were collected, counted, resuspended in 1×PBS, and the cell suspension concentration was adjusted to 2.5-5×10^7/mL. The tumor cells were inoculated subcutaneously in the right side of immunodeficient mice with a 1 mL syringe (4 gauge needle), 5-10×10^6/0.2 mL/mouse. All animal experiments were strictly in accordance with the specifications for the use and management of experimental animals in GenePharma Co., Ltd. and Suzhou Ascentage Pharma Co., Ltd. The calculation of relevant parameters refers to the Chinese NMPA “Guidelines for Non-Clinical Research Techniques of Cytotoxic Anti-tumor Drugs”.
(§2) Tumor volume (TV) is calculated as: TV=a×b^2/2, wherein a and b represent the length and width of the tumor to be measured, respectively.
(§3) The relative tumor volume (RTV) is calculated as: RTV=Vt/V1, wherein V1 is the tumor volume at the start of grouping and administration, and Vt is the tumor volume measured on the t day after administration.
Use of mRECIST (Gao et al., 2015) measured tumor responses included stable disease (SD), partial tumor regression (PR), and complete regression (CR), determined by comparing tumor volume change at day t to its baseline: tumor volume change (%)=(Vt−V1/V1). The BestResponse was the minimum value of tumor volume change (%) for t≥10. For each time t, the average of tumor volume changes from t=1 to t was also calculated. BestAvgResponse was defined as the minimum value of this average for t≥10. The criteria for response (mRECIST) were adapted from RECIST criteria (Gao et al., 2015; Therasse et al., 2000) and defined as follows: mCR, BestResponse <−95% and BestAvg Response <−40%; mPR, BestResponse <−50% and BestAvgResponse <−20%; mSD, BestResponse <35% and BestAvgResponse <30%; mPD, not otherwise categorized. […] Body weight of animals were monitored simultaneously. The change in body weight was calculated based on the animal weight of the first day of dosing (day 1). […]

[2] = system: ST-02-0077 HER2+Gastric cancer PDX; assay: subcutaneous ST-02-0077 HER2+ gastric cancer PDX model; format: in vivo, mice
Method: (§4) A subcutaneous xenograft tumor model of human tumor immunodeficient mice was established by cell inoculation: tumor cells in logarithmic growth phase were collected, counted, resuspended in 1×PBS, and the cell suspension concentration was adjusted to 2.5-5×10^7/mL. The tumor cells were inoculated subcutaneously in the right side of immunodeficient mice with a 1 mL syringe (4 gauge needle), 5-10×10^6/0.2 mL/mouse.
as §2, §3
(§5) Lapatinib: 100 mg/kg, PO, QD, for a total of 3 weeks,
(§6) The dosing regimen of each drug in the dosing regimen for the combination is the same as the dosing regimen for the single drug.

[3] = system: SKM-1 MDS xenograft; assay: SKM-1 model of myelodysplastic syndromes (MDS); format: in vivo, mice
Method: Compound A: 30 mg/kg, PO, QD, for a total of 22 days,
Azacitidine: 1 mg/kg, IV, QD, for a total of 7 days,
Decitabine: 0.3 mg/kg IV, QD, for a total of 7 days, […]

[4] = system: MH-22A syngeneic tumors; assay: MH-22A syngeneic tumors, 5-day dosing (Example 76); format: in vivo, mice
Method: Compound A: 50 mg/kg, PO, QD, for a total of 5 days,
Lenvatinib: 10 mg/kg, PO, QD, for a total of 5 days,
Anti-PD-1: 5 mg/kg, I.P., BIW, for a total of 5 days, […]

[5] = system: syngeneic colon MC38 tumor; assay: s.c. syngeneic colon MC38 tumor model (Example 72); format: in vivo, mice
[6] = system: MOLM-13 AML model; assay: systemic TP53wt MOLM-13 AML model (Example 42); parameters: species or system mice; settings: mouse, in vivo
Source text: MOLM-13 cells labeled with GFP was provided by WUXI.

[7] = system: MV-4-11 AML xenograft; assay: subcutaneous p53wt MV-4-11 AML model, Compound A + Compound E; format: in vivo, mice
Method: (§1) Tumor volume (TV) is calculated as:

[8] = system: MV-4-11 AML xenograft; assay: s.c. MV-4-11 AML xenograft, Compound A + Compound C; format: in vivo, mice; settings: Compound C 10 mg/kg
Method: as §1

[9] = system: SCLC PDX model LU5183; assay: SCLC PDX model LU5183; format: in vivo, mice
Method: as §4, §2, §3

[10] = system: SCLC PDX model LU5264; assay: SCLC PDX model LU5264; format: in vivo, mice
Method: as §4, §2, §3

[11] = system: DOHH2 xenograft; assay: subcutaneous FL DOHH2 xenograft; format: in vivo, mice
Method: as §1

[12] = system: ST-02-0103 HER2+Gastric cancer PDX; assay: subcutaneous ST-02-0103 HER2+ gastric cancer PDX model; format: in vivo, mice
Method: as §4, §2, §3, §5, §6

[13] = Cpd A 100 mg/kg, Lapatinib 100 mg/kg

`O=C(NS(=O)(=O)c1ccc(NC[C@H]2COCCO2)c([N+](=O)[O-])c1)c1ccc(N2CCN(CC3=C(c4ccc(Cl)cc4)CC4(CCC4)CC3)CC2)cc1Oc1cnc2[nH]ccc2c1` [Compound A, (S)—N-((4-(((1,4-dioxan-2-yl)methyl)amino)-3-nitrophenyl)sulfonyl)-2-((1H-pyrrolo[2,3-b]pyridin-5-yl)oxy)-4-(4-((6-(4-chlorophenyl)spiro[3.5]non-6-en-7-yl)methyl)piperazin-1-yl)benzamide] was tested, and the “T/C (%) @ D 10” value [1] was 39%, the “RTV@D 21” value [2, 13] was 9.70 ± 0.21 and the “T/C(%) @ D 21” value ([2]; doses as E199) was 83.48%. The “RTV@ PG-D 22” value ([3]; Cpd A 30 mg/kg, Azacitidine 1 mg/kg, Decitabine 0.3 mg/kg) was 16.4 ± 0.8, the “T/C(%)@PG-D 22” value ([3]; doses as E167) was 92.0% and the “RTV @ D 5” value ([4]; Compound A 50 mg/kg, Lenvatinib 10 mg/kg, Anti-PD-1 5 mg/kg) was 4.24 ± 0.44. For the same compound, the “T/C (%) @ D 5” value ([4]; doses as E225) was 86.62%, the “RTV@PG-D 17” value ([5]; Cpd A, Anti-PD-1, 5 mg/kg) was 22.3 ± 4.6 and the “T/C(%)@PG-D 17” value ([5]; doses as E209) was 119%. The Median survival days [6] was 24 days, the “RTV@ D 22” value ([7]; Compound A 100 mg/kg, Compound E 100 mg/kg) was 7.5 ± 0.9 and the “T/C(%)@D 22” value ([7]; doses as E111) was 55.1%. The “RTV@ D 19” value ([8]; Compound A 50 mg/kg) was 10.8 ± 1.2, the “T/C(%)@D 19” value ([8]; Compound A 50 mg/kg) was 69.6% and the “RTV@ D 19” value ([8]; Compound A 100 mg/kg) was 9.2 ± 0.8. The “T/C(%)@D 19” value ([8]; Compound A 100 mg/kg) was 59.0%, the “T/C (%) on Day 22” value ([9]; Day 22) was 65.48% and the “T/C (%) on Day 26” value ([9]; Day 26) was 70.22%. The “T/C (%) on Day 22” value [10] was 32.09%, the “RTV@D 21” value ([11]; Compound A 50 mg/kg, qd, po, idelalisib 15 mg/kg, bid) was 7.1 ± 0.56 and the “T/C(%) @211” value ([11]; doses as E51) was 50.5%. The “RTV@D 21” value [12, 13] was 6.28 ± 0.58 and the “T/C(%) @ D 21” value ([12]; doses as E195) was 102.93%.
